From paper PMC9933483, “Tail-Approach-Based Design and Synthesis of Coumarin-Monoterpenes as Carbonic Anhydrase Inhibitors and Anticancer Agents” (ACS Omega, 2023) come the findings set out here.

One series relates to HT-29 cell line. Put plainly: Cell cytotoxicity, MTT assay. The format is cell-based, human. Particulars: Homo sapiens, HT-29; MTT, 24 h. Background: Tetrazolium dyes change colour on reduction, which living cells bring about.
The target of the next series is hCA IX (Homo sapiens, UniProt Q16790). The series can be described thus: biochemical.
For another series, the system named is PC-3 cell line. The series can be described thus: Cell cytotoxicity, MTT assay. The note with it: Homo sapiens, 24 h. The series is classed as cell-based.
The subject of another series is MCF-7 cell line. The series can be described thus: Cell cytotoxicity, MTT assay. The format is cell-based, human. Particulars: Homo sapiens, MCF7, 24 h.
A further series has as its system HEK293T cell line. The series can be described thus: Cell cytotoxicity, MTT assay. The note with it: Homo sapiens, HEK-293T, 24 h, healthy cell line. The format is cell-based.

Structures are written as SMILES.

As a reminder, the IC50 is the concentration needed to halve the response being measured. Low readings indicate higher potency, high ones lower potency. In general, melting point refers to the temperature, or range, at which the solid turns liquid. For orientation: Ki means a dissociation constant, usually derived from enzyme kinetics or from competition with a known ligand. `C=CCc1ccc(OCc2cn(CCCCCCCCCCOc3ccc4ccc(=O)oc4c3)nn2)c(OC)c1` [Compound 34, 7-((10-(4-((4-Allyl-2-methoxyphenoxy)methyl)-1H-1,2,3-triazol-1-yl)decyl)oxy)-2H-chromen-2-one] returned a melting point of 48 to 49 °C. In the series with HT-29 cell line, it took 25.7 ± 8.15 µM to reach half-maximal inhibition (IC50). This compound returned a Ki at hCA IX of 0.0281 µM.
The like results for `Cc1ccc(C(C)C)cc1OCc1cn(CCCCCCCCCCOc2ccc3ccc(=O)oc3c2)nn1` [Compound 26, 7-((10-(4-((5-Isopropyl-2-methylphenoxy)methyl)-1H-1,2,3-triazol-1-yl)decyl)oxy)-2H-chromen-2-one] were, in that order, 73 to 74 °C, 40.8 ± 10.2 µM and 0.258 µM.
The compound `Cc1ccc(C(C)C)cc1OCCOc1ccc2ccc(=O)oc2c1` [Compound 52, 7-(2-(5-Isopropyl-2-methylphenoxy)ethoxy)-2H-chromen-2-one] displayed a melting point of 172 to 173 °C. Also, the IC50 in the series on HT-29 cell line is 74.2 ± 6.48 µM.
As for `C=CCc1ccc(OCCCCCCCOc2ccc3ccc(=O)oc3c2)c(OC)c1` [Compound 64, 7-((7-(4-Allyl-2-methoxyphenoxy)heptyl)oxy)-2H-chromen-2-one], the melting point was in the range of 62 to 63 °C. The half-inhibitory concentration (IC50) in the series with HT-29 cell line was > 80 µM.
`Cc1ccc(C(C)C)cc1OCc1cn(CCCCCCCCCOc2ccc3ccc(=O)oc3c2)nn1` [Compound 25, 7-((9-(4-((5-Isopropyl-2-methylphenoxy)methyl)-1H-1,2,3-triazol-1-yl)nonyl)oxy)-2H-chromen-2-one] came in with a melting point of 69 to 70 °C. This compound displayed a concentration for half-maximal inhibition (IC50) in the series on HT-29 cell line of 47.6 ± 13.8 µM. Also, at hCA IX, the Ki worked out at 0.0897 µM.
For `Cc1ccc(C(C)C)cc1OCCCCCCCCCCCCOc1ccc2ccc(=O)oc2c1` [Compound 59, 7-((12-(5-Isopropyl-2-methylphenoxy)dodecyl)oxy)-2H-chromen-2-one], the melting point is 58 to 59 °C. Moreover, in the series on HT-29 cell line, the IC50 was > 200 µM.
`Cc1ccc(C(C)C)cc1OCCCCOc1ccc2ccc(=O)oc2c1` [Compound 54, 7-(4-(5-Isopropyl-2-methylphenoxy)butoxy)-2H-chromen-2-one] registered a melting point of 74 to 75 °C. Moreover, in the series with HT-29 cell line, the half-maximal inhibitory concentration (IC50) came out at 59.8 ± 6.73 µM.
`C=CCc1ccc(OCc2cn(CCCCCCCCCCCCOc3ccc4ccc(=O)oc4c3)nn2)c(OC)c1` [Compound 35, 7-((12-(4-((4-Allyl-2-methoxyphenoxy)methyl)-1H-1,2,3-triazol-1-yl)dodecyl)oxy)-2H-chromen-2-one]: the melting point fell in the range of 72 to 74 °C. Also, the concentration for half-maximal inhibition (IC50) with HT-29 cell line is 23.2 ± 6.94 µM. The compound further came in with a Ki at hCA IX of 0.0299 µM.
For the compound `C=CCc1ccc(OCc2cn(CCOc3ccc4ccc(=O)oc4c3)nn2)c(OC)c1` [Compound 28, 7-(2-(4-((4-Allyl-2-methoxyphenoxy)methyl)-1H-1,2,3-triazol-1-yl)ethoxy)-2H-chromen-2-one], the melting point fell in the range of 118 to 119 °C. In the series with HT-29 cell line, half-maximal inhibition (IC50) was put at 25.8 ± 8.4 µM. The Ki at hCA IX was 0.0319 µM.
Compound `Cc1ccc(C(C)C)c(OCc2cn(CCCCCCCCCCOc3ccc4ccc(=O)oc4c3)nn2)c1` [Compound 18, 7-((10-(4-((2-Isopropyl-5-methylphenoxy)methyl)-1H-1,2,3-triazol-1-yl)decyl)oxy)-2H-chromen-2-one] returned a melting point of 72 to 73 °C. Besides, the 50% inhibitory concentration (IC50) in the series with HT-29 cell line was 41.5 ± 14.2 µM. In addition, the affinity on hCA IX corresponds to a Ki of 0.268 µM.
The like results for `C=CCc1ccc(OCc2cn(CCCCCCCCCOc3ccc4ccc(=O)oc4c3)nn2)c(OC)c1` [Compound 33, 7-((9-(4-((4-Allyl-2-methoxyphenoxy)methyl)-1H-1,2,3-triazol-1-yl)nonyl)oxy)-2H-chromen-2-one] were, in that order, 83 to 84 °C, 31.3 ± 10.9 µM and 0.189 µM.
`C=CCc1ccc(OCCCOc2ccc3ccc(=O)oc3c2)c(OC)c1` [Compound 61, 7-(3-(4-Allyl-2-methoxyphenoxy)propoxy)-2H-chromen-2-one] yielded a melting point of 70 to 71 °C. In addition, the IC50 in the series on HT-29 cell line is > 80 µM.
The like results for `C=CCc1ccc(OCCCCCCCCCOc2ccc3ccc(=O)oc3c2)c(OC)c1` [Compound 65, 7-((9-(4-Allyl-2-methoxyphenoxy)nonyl)oxy)-2H-chromen-2-one] were, in that order, 56 to 57 °C and 39.4 ± 7.1 µM.
On the same counts, the results for `Cc1ccc(C(C)C)c(OCCOc2ccc3ccc(=O)oc3c2)c1` [Compound 44, 7-(2-(2-Isopropyl-5-methylphenoxy)ethoxy)-2H-chromen-2-one] are 181 to 182 °C and 55.6 ± 4.91 µM.
Regarding `Cc1ccc(C(C)C)cc1OCCCCCCCCCCOc1ccc2ccc(=O)oc2c1` [Compound 58, 7-((10-(5-Isopropyl-2-methylphenoxy)decyl)oxy)-2H-chromen-2-one], the melting point fell in the range of 50 to 51 °C. In addition, the half-inhibitory concentration (IC50) with HT-29 cell line is > 200 µM.
Compound `Cc1ccc(C(C)C)cc1OCc1cn(CCCCCCCCCCCCOc2ccc3ccc(=O)oc3c2)nn1` [Compound 27, 7-((12-(4-((5-Isopropyl-2-methylphenoxy)methyl)-1H-1,2,3-triazol-1-yl)dodecyl)oxy)-2H-chromen-2-one] came in with a melting point of 80 to 81 °C. Inhibition in the series on HT-29 cell line was half-maximal at 29.6 ± 6.47 µM (IC50). Further, the affinity at hCA IX, expressed as Ki, was 0.0304 µM.
For the compound `CC1CCC(C(C)C)C(OCCCOc2ccc3ccc(=O)oc3c2)C1` (stereo not shown) [Compound 69, 7-(3-((2-Isopropyl-5-methylcyclohexyl)oxy)propoxy)-2H-chromen-2-one], the IC50 in the series with PC-3 cell line is 41.4 ± 14.9 µM; in the series on MCF-7 cell line it was 5.86 ± 1.22 µM; in the series with HT-29 cell line, 12.1 ± 1.94 µM; in the series on HEK293T cell line, 50 ± 8.43 µM. This compound also showed an inhibitory constant (Ki) at hCA IX of 0.0341 µM.
`CC1CCC(C(C)C)C(OCc2cn(CCOc3ccc4ccc(=O)oc4c3)nn2)C1` (stereo not shown) [Compound 36, 7-(2-(4-(((2-isopropyl-5-methylcyclohexyl)oxy)methyl)-1H-1,2,3-triazol-1-yl)ethoxy)-2H-chromen-2-one] came in with a melting point of 122 to 123 °C. The IC50 with HT-29 cell line was found to be 38.2 ± 12.1 µM.
With `CC1CCC(C(C)C)C(OCc2cn(CCCCOc3ccc4ccc(=O)oc4c3)nn2)C1` (stereo not shown) [Compound 38, 7-(4-(4-(((2-Isopropyl-5-methylcyclohexyl)oxy)methyl)-1H-1,2,3-triazol-1-yl)butoxy)-2H-chromen-2-one], the melting point fell in the range of 75 to 76 °C. Moreover, it took 37.2 ± 11.6 µM to reach half-maximal inhibition with HT-29 cell line (IC50). This compound also showed a Ki on hCA IX of 0.3 µM.
Take `Cc1ccc(C(C)C)c(OCc2cn(CCCCCCCCCCCCOc3ccc4ccc(=O)oc4c3)nn2)c1` [Compound 19, 7-((12-(4-((2-Isopropyl-5-methylphenoxy)methyl)-1H-1,2,3-triazol-1-yl)dodecyl)oxy)-2H-chromen-2-one]: the melting point was in the range of 68 to 69 °C. It took 37.6 ± 11.7 µM to reach half-maximal inhibition in the series with HT-29 cell line (IC50). Moreover, the Ki on hCA IX came to 0.0218 µM.
On to `Cc1ccc(C(C)C)c(OCCCOc2ccc3ccc(=O)oc3c2)c1` [Compound 45, 7-(3-(2-Isopropyl-5-methylphenoxy)propoxy)-2H-chromen-2-one], for which the IC50 with PC-3 cell line was > 80 µM; with MCF-7 cell line, > 200 µM; in the series on HT-29 cell line, > 200 µM; in the series with HEK293T cell line it was 43.3 ± 5.43 µM. The compound further came in with an inhibitory constant (Ki) at hCA IX of 0.192 µM.
